Test results: ChEMBL document CHEMBL3351924, “Detailed analysis and follow-up studies of a high-throughput screening for indoleamine 2,3-dioxygenase 1 (IDO1) inhibitors” (Eur J Med Chem, 2014); call rule not given here
In brackets after ≈: the same amount, converted by molar mass.

Tests used:
[1] = target: T1, Indoleamine 2,3-dioxygenase 1 (Homo sapiens, UniProt P14902); assay: Inhibition of IDO1 (unknown origin) using L-tryptophan substrate incubated for 60 mins in presence of 0.01% Triton-X by HPLC
T1 sequence (P14902 whole entry): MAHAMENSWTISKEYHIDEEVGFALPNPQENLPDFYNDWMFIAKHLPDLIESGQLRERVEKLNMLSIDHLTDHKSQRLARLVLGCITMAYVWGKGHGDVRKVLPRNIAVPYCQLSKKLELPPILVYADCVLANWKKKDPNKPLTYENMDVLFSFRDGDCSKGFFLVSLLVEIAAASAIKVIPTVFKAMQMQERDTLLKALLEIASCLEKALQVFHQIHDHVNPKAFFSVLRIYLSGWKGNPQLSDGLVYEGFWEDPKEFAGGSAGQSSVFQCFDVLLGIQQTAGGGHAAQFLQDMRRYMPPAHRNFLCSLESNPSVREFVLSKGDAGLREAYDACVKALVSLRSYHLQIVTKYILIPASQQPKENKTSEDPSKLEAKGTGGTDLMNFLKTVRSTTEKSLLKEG

[2] = Solubility of the compound in pH 6.5 phosphate buffer containing 5% DMSO; conditions: phosphate buffer containing 5% DMSO
[3] = target: T1, Indoleamine 2,3-dioxygenase 1; assay: Inhibition of IDO1 (unknown origin) using L-tryptophan substrate incubated for 60 mins by HPLC
[4] = target: Indoleamine 2,3-dioxygenase 1 (Mus musculus, UniProt P28776); assay: Inhibition of mouse IDO1 expressed in mouse P815B cells using L-tryptophan substrate incubated for 18 hrs by HPLC based cellular assay; format: cell-based
Indoleamine 2,3-dioxygenase 1 (Mus musculus, UniProt P28776), sequence (P28776 whole entry): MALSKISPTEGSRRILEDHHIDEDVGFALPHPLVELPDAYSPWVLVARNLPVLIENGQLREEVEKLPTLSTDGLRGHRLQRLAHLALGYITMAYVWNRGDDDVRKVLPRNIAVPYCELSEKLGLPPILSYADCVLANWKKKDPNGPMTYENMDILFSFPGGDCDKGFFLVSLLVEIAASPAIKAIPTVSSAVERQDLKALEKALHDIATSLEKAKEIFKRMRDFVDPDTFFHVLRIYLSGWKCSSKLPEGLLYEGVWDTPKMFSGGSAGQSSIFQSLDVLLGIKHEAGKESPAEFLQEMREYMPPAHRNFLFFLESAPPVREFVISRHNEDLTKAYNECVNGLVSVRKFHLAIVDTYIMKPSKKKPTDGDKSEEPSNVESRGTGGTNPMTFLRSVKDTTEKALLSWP

[5] = target: Tryptophan 2,3-dioxygenase (Mus musculus, UniProt P48776); assay: Inhibition of mouse TDO expressed in mouse P815B cells using L-tryptophan substrate incubated for 24 hrs by HPLC based cellular assay; format: cell-based; conditions: p815b
Tryptophan 2,3-dioxygenase, sequence (P48776 whole entry): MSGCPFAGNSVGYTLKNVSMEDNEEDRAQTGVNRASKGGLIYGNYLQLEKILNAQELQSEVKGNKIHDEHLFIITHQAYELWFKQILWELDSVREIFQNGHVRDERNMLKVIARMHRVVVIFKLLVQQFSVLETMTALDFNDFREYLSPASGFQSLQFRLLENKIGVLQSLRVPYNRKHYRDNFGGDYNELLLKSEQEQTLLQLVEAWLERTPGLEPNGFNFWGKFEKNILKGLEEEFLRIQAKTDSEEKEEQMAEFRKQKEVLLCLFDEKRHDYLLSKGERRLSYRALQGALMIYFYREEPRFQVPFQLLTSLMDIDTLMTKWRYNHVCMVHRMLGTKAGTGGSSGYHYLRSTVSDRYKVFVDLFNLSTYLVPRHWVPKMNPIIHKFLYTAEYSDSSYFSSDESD

[6] = Cytotoxicity against mouse P815B cells after 24 hrs by MTS/PMS assay; conditions: P815B cells
[7] = target: T1, Indoleamine 2,3-dioxygenase 1; assay: Inhibition of IDO1 (unknown origin) using L-tryptophan substrate incubated for 60 mins in presence of 5 mM GSH by HPLC

OC(Cn1ccnc1)c1ccccc1 (stereo not given)
IC50 [1]: Not Active | solubility [2]: > 1000 µM

OC(Cn1ccnc1)c1ccc(Cl)cc1Cl (stereo not given)
IC50 ([1]; read-out: IC50): 130 µM | solubility [2]: > 1000 µM

N=C(N)SCc1nc(-c2ccc(Cl)cc2)no1
IC50 ([3]; read-out: IC50): 0.89 µM | IC50 ([1]; read-out: IC50): 1.2 µM | IC50 ([4]; read-out: IC50): 2.1 µM | IC50 [5]: Not Active | CC50 at 24 h [6]: 10 µM | solubility [2]: 1000 µM (≈ 269 µg/mL)

OC(Cn1cncn1)c1ccc(Cl)cc1Cl (stereo not given)
IC50 [1]: Not Active | solubility [2]: > 1000 µM

OC(Cn1ccnc1)c1ccc(Cl)cc1 (stereo not given)
IC50 [1]: Not Active | solubility [2]: > 1000 µM

Cc1cc(N/C=C(\C#N)S(=O)(=O)c2ccccc2Cl)nc(C)n1
solubility [2]: 250 µM (≈ 87.2 µg/mL)

NC(=S)N/N=C1\CCc2ccccc21
IC50 [3]: Not Active | solubility [2]: 1000 µM (≈ 205 µg/mL)

Nc1n[nH]c2cc(O)[nH]c(=O)c12
IC50 [3]: Not Active | solubility [2]: 1000 µM (≈ 166 µg/mL)

c1ccc(-n2ccnc2)cc1
IC50 [1]: Not Active | solubility [2]: > 1000 µM

CN(C)/C=N/C(=S)Nc1cccc(F)c1
solubility [2]: 1000 µM (≈ 225 µg/mL)

COC(=O)/C(C#N)=C(\C#N)c1ccc(Br)o1
IC50 ([3]; read-out: IC50): 0.71 µM | IC50 ([4]; p815b): Not Active | IC50 [5]: Not Active | CC50 at 24 h [6]: 5 µM | IC50 [7]: 7.1 µM | solubility [2]: 100 µM (≈ 28.1 µg/mL)

N#CC(C#N)=C1c2cc(S(N)(=O)=O)cc([N+](=O)[O-])c2-c2c1cc(S(N)(=O)=O)cc2[N+](=O)[O-]
IC50 ([3]; read-out: IC50): 1 µM | IC50 ([1]; read-out: IC50): 0.96 µM | IC50 ([4]; p815b): Not Active | IC50 [5]: Not Active | CC50 at 24 h [6]: > 25 µM | IC50 [7]: 1.6 µM | solubility [2]: 250 µM (≈ 119 µg/mL)

COC(=O)/C(C#N)=C1/C(=O)Nc2ccccc21
IC50 ([3]; read-out: IC50): 1.8 µM | IC50 ([4]; p815b): Not Active | IC50 [5]: Not Active | CC50 at 24 h [6]: > 25 µM | IC50 [7]: 130 µM | solubility [2]: 100 µM (≈ 22.8 µg/mL)

N#CC(C(=O)Nc1cccc(C(F)(F)F)c1)C(=S)Nc1ccccc1Cl (stereo not given)
IC50 ([3]; read-out: IC50): 7 µM | IC50 ([1]; read-out: IC50): 6.3 µM | IC50 ([4]; p815b): Not Active | IC50 [5]: Not Active | CC50 at 24 h [6]: > 25 µM | IC50 [7]: 71 µM | solubility [2]: 1000 µM (≈ 398 µg/mL)

NNC(=O)c1nn(-c2ccccc2)c(=O)c2c(N)scc12
IC50 ([3]; read-out: IC50): 13 µM | IC50 ([1]; read-out: IC50): 15 µM | IC50 ([4]; p815b): Not Active | IC50 [5]: Not Active | CC50 at 24 h [6]: > 25 µM | solubility [2]: 1000 µM (≈ 301 µg/mL)

CCN(CC)c1ccc(NC(=O)C2CCCCC2)c(N(CC)CC)n1
solubility [2]: 25 µM (≈ 8.66 µg/mL)

CC1=C(C#N)C(c2ccc(-c3ccc(Cl)cc3[N+](=O)[O-])o2)C(C#N)=C(C)N1
IC50 [3]: Not Active | solubility [2]: 50 µM (≈ 19 µg/mL)

NC(=O)N/N=C/c1ccc(-c2ccc(C(F)(F)F)cc2[N+](=O)[O-])o1
IC50 [3]: Not Active | solubility [2]: 50 µM (≈ 17.1 µg/mL)

Oc1c(Cl)cc(Cl)cc1/C=N/c1ccc2[nH]cnc2c1
solubility [2]: 10 µM (≈ 3.06 µg/mL)

NC(=S)N/N=C/c1c(F)cccc1Cl
solubility [2]: 250 µM (≈ 57.9 µg/mL)

Cc1cc(NS(=O)(=O)c2ccc(Cl)s2)no1
solubility [2]: 1000 µM (≈ 279 µg/mL)

CNC(=S)N/N=C/c1ccc(OC)c(OC)c1
solubility [2]: 1000 µM (≈ 253 µg/mL)

CC(C)(C)S(=O)(=O)/C(C#N)=C/c1ccsc1
solubility [2]: 1000 µM (≈ 255 µg/mL)

Cc1nn(-c2ccccc2)nc1CNC(=O)c1ccc2nsnc2c1
solubility [2]: 50 µM (≈ 17.5 µg/mL)

N#C/C(=C\c1c[nH]cn1)S(=O)(=O)c1ccc(Cl)cc1
solubility [2]: 1000 µM (≈ 294 µg/mL)

Oc1nc(=S)ccn1-c1nc(-c2ccccc2)sc1-c1ccccc1
solubility [2]: 50 µM (≈ 18.2 µg/mL)

Cn1cc(Cl)c(/C=C(\C#N)S(=O)(=O)C(C)(C)C)n1
solubility [2]: 1000 µM (≈ 288 µg/mL)

COc1ccc(-c2n[nH]cc2/C=C(/C#N)S(C)(=O)=O)cc1
solubility [2]: 100 µM (≈ 30.3 µg/mL)

COCCCNC(=O)N/N=C/c1ccco1
solubility [2]: 1000 µM (≈ 225 µg/mL)

N#C/C(=C\c1c[nH]cn1)S(=O)(=O)c1cccs1
solubility [2]: 1000 µM (≈ 265 µg/mL)

COc1ccccc1NC(=S)N/N=C/c1ccco1
solubility [2]: 250 µM (≈ 68.8 µg/mL)

Oc1ccc(Br)cc1/C=N/c1ccc2[nH]nnc2c1
IC50 [3]: Not Active | solubility [2]: 10 µM (≈ 3.17 µg/mL)

CSC1=NNC(c2ccccn2)S1 (stereo not given)
solubility [2]: 100 µM (≈ 21.1 µg/mL)

S=c1[nH]cc(-c2ccc(Cl)cc2)o1
IC50 [3]: Not Active | solubility [2]: 100 µM (≈ 21.2 µg/mL)

Clc1ccc(Sc2nc(-c3cccs3)ns2)cc1
solubility [2]: 100 µM (≈ 31.1 µg/mL)

O=C(CC(=O)c1cccnc1)c1cccnc1
solubility [2]: 1000 µM (≈ 226 µg/mL)

Cc1cc(C)n2[nH]c(=S)nc2n1
solubility [2]: 1000 µM (≈ 180 µg/mL)
